Results from ChEMBL document CHEMBL3885881, “DrugMatrix”.

Species on record: Rattus norvegicus
Assay: DrugMatrix - Regimen: Daily Repeat
Type: toxicity, organism-based, Sprague-Dawley
Design: regimen Daily Repeat, gender Male, age 6-8 weeks
Conditions: in vivo, po, 2 mg/kg, route oral GAVAGE, dose level Low, […]; for ABSOLUTE BASOPHIL / ABSOLUTE EOSINOPHIL / ABSOLUTE LYMPHOCYTE / ABSOLUTE MONOCYTE / ABSOLUTE SEGMENTED NEUTROPHIL / BASOPHIL / EOSINOPHIL / ERYTHROCYTE COUNT / HEMATOCRIT / HEMOGLOBIN / LEUKOCYTE COUNT / LYMPHOCYTE / MEAN CORPUSCULAR HEMOGLOBIN / MEAN CORPUSCULAR HEMOGLOBIN CONCENTRATION / MEAN CORPUSCULAR VOLUME / MONOCYTE / NEUTROPHIL / NUCLEATED RED BLOOD CELLS / PLATELET COUNT: tissue Blood; for ALANINE AMINOTRANSFERASE / ALBUMIN / ALKALINE PHOSPHATASE / ASPARTATE AMINOTRANSFERASE / BLOOD UREA NITROGEN / CARBON DIOXIDE / CHLORIDE / CHOLESTEROL / CREATINE PHOSPHOKINASE / CREATININE / GLUCOSE / LACTATE DEHYDROGENASE / LIPASE / PHOSPHORUS / POTASSIUM / SODIUM / TOTAL BILIRUBIN / TOTAL PROTEIN / URIC ACID: tissue Plasma

In the case of `Cc1nnc2n1-c1ccc(Cl)cc1C(c1ccccc1)=NC2` [ALPRAZOLAM], the “ABSOLUTE BASOPHIL” value (72 h, time 3 day) is reported as 0 CELLS/uL, the “ABSOLUTE EOSINOPHIL” value (72 h, time 3 day) is reported as 40.33 CELLS/uL and the “ABSOLUTE LYMPHOCYTE” value (72 h, time 3 day) is reported as 13483.67 CELLS/uL. For the same compound, the “ABSOLUTE MONOCYTE” value (72 h, time 3 day) was 168.67 CELLS/uL, the “ABSOLUTE SEGMENTED NEUTROPHIL” value (72 h, time 3 day) was 1074 CELLS/uL and the BASOPHIL (72 h, time 3 day) was 0%. The EOSINOPHIL (72 h, time 3 day) was 0.33%, the “ERYTHROCYTE COUNT” value (72 h, time 3 day) was 5.44 x10E6/uL and the HEMATOCRIT (72 h, time 3 day) was 34.8%. The HEMOGLOBIN (72 h, time 3 day) was 13.4 G/DL, the “LEUKOCYTE COUNT” value (72 h, time 3 day) was 14.77 x10E3/uL and the LYMPHOCYTE (72 h, time 3 day) was 91%. The “MEAN CORPUSCULAR HEMOGLOBIN” value (72 h, time 3 day) was 24.7 pg, the “MEAN CORPUSCULAR HEMOGLOBIN CONCENTRATION” value (72 h, time 3 day) was 38.5 G/DL and the “MEAN CORPUSCULAR VOLUME” value (72 h, time 3 day) was 64.17 fL. For the same compound, the MONOCYTE (72 h, time 3 day) was 1.33%, the NEUTROPHIL (72 h, time 3 day) was 7.33% and the “NUCLEATED RED BLOOD CELLS” value (72 h, time 3 day) was 0 /100WBC. For the same compound, the “PLATELET COUNT” value (72 h, time 3 day) was 1211 x10E3/uL, the “ALANINE AMINOTRANSFERASE” value (72 h, time 3 day) was 78.67 u/L and the ALBUMIN (72 h, time 3 day) was 4.13 G/DL. For the same compound, the “ALKALINE PHOSPHATASE” value (72 h, time 3 day) was 386.33 u/L, the “ASPARTATE AMINOTRANSFERASE” value (72 h, time 3 day) was 99 u/L and the “BLOOD UREA NITROGEN” value (72 h, time 3 day) was 15 mg/dL. For the same compound, the “CARBON DIOXIDE” value (72 h, time 3 day) was 27 mmol/L, the CHLORIDE (72 h, time 3 day) was 99 MEQ/L and the CHOLESTEROL (72 h, time 3 day) was 68.67 mg/dL. The “CREATINE PHOSPHOKINASE” value (72 h, time 3 day) was 276 u/L, the CREATININE (72 h, time 3 day) was 0.2 mg/dL and the GLUCOSE (72 h, time 3 day) was 160.33 mg/dL. The “LACTATE DEHYDROGENASE” value (72 h, time 3 day) was 401.67 u/L, the LIPASE (72 h, time 3 day) was 10.33 u/L and the PHOSPHORUS (72 h, time 3 day) was 13.67 mg/dL. For the same compound, the POTASSIUM (72 h, time 3 day) was 7.37 MEQ/L, the SODIUM (72 h, time 3 day) was 142.63 MEQ/L and the “TOTAL BILIRUBIN” value (72 h, time 3 day) was 0.23 mg/dL. For the same compound, the “TOTAL PROTEIN” value (72 h, time 3 day) was 5.63 G/DL, the “URIC ACID” value (72 h, time 3 day) was 1.7 mg/dL and the “ABSOLUTE BASOPHIL” value (120 h, time 5 day) was 0 CELLS/uL. For the same compound, the “ABSOLUTE EOSINOPHIL” value (120 h, time 5 day) was 0 CELLS/uL, the “ABSOLUTE LYMPHOCYTE” value (120 h, time 5 day) was 13775.33 CELLS/uL and the “ABSOLUTE MONOCYTE” value (120 h, time 5 day) was 53.67 CELLS/uL. For the same compound, the “ABSOLUTE SEGMENTED NEUTROPHIL” value (120 h, time 5 day) was 1637.67 CELLS/uL, the BASOPHIL (120 h, time 5 day) was 0% and the EOSINOPHIL (120 h, time 5 day) was 0%. The “ERYTHROCYTE COUNT” value (120 h, time 5 day) was 5.79 x10E6/uL, the HEMATOCRIT (120 h, time 5 day) was 35.1% and the HEMOGLOBIN (120 h, time 5 day) was 13.93 G/DL. For the same compound, the “LEUKOCYTE COUNT” value (120 h, time 5 day) was 15.47 x10E3/uL, the LYMPHOCYTE (120 h, time 5 day) was 89% and the “MEAN CORPUSCULAR HEMOGLOBIN” value (120 h, time 5 day) was 24.07 pg. For the same compound, the “MEAN CORPUSCULAR HEMOGLOBIN CONCENTRATION” value (120 h, time 5 day) was 39.7 G/DL, the “MEAN CORPUSCULAR VOLUME” value (120 h, time 5 day) was 60.57 fL and the MONOCYTE (120 h, time 5 day) was 0.33%. The NEUTROPHIL (120 h, time 5 day) was 10.67%, the “NUCLEATED RED BLOOD CELLS” value (120 h, time 5 day) was 0 /100WBC and the “PLATELET COUNT” value (120 h, time 5 day) was 1214.33 x10E3/uL. For the same compound, the “ALANINE AMINOTRANSFERASE” value (120 h, time 5 day) was 67 u/L, the ALBUMIN (120 h, time 5 day) was 4 G/DL and the “ALKALINE PHOSPHATASE” value (120 h, time 5 day) was 343.67 u/L. For the same compound, the “ASPARTATE AMINOTRANSFERASE” value (120 h, time 5 day) was 109.67 u/L, the “BLOOD UREA NITROGEN” value (120 h, time 5 day) was 15 mg/dL and the “CARBON DIOXIDE” value (120 h, time 5 day) was 27 mmol/L. The CHLORIDE (120 h, time 5 day) was 101 MEQ/L, the CHOLESTEROL (120 h, time 5 day) was 81.67 mg/dL and the “CREATINE PHOSPHOKINASE” value (120 h, time 5 day) was 429 u/L. For the same compound, the CREATININE (120 h, time 5 day) was 0.19 mg/dL, the GLUCOSE (120 h, time 5 day) was 142.33 mg/dL and the “LACTATE DEHYDROGENASE” value (120 h, time 5 day) was 632 u/L. The LIPASE (120 h, time 5 day) was 10.67 u/L, the PHOSPHORUS (120 h, time 5 day) was 11.1 mg/dL and the POTASSIUM (120 h, time 5 day) was 5.98 MEQ/L. For the same compound, the SODIUM (120 h, time 5 day) was 144.97 MEQ/L, the “TOTAL BILIRUBIN” value (120 h, time 5 day) was 0.13 mg/dL and the “TOTAL PROTEIN” value (120 h, time 5 day) was 5.63 G/DL. The “URIC ACID” value (120 h, time 5 day) was 1.63 mg/dL.
